According to patent publication US10597388B2, “Pyridazinone herbicides” (FMC CORPORATION, priority 2014, dated 2020):

Key:
Type in all cases: in vivo
corn (Zea mays) = test: Test A greenhouse herbicide test, pre- and postemergence; conditions: Postemergence; for Plant response rating, Corn: 125 g ai/ha; for Corn plant response rating: 500 g ai/ha, 0 to 100 scale, 0 is no effect, 100 is complete control
Method in brief: (§1)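 Visual injury ratings, 0 (no effect) to 100 (complete control), versus untreated plants after roughly 10 d in a greenhouse. Compounds, formulated in a surfactant-containing non-phytotoxic solvent, were sprayed on loam–sand soil after sowing (pre) or on one- to two-leaf plants 2–10 cm tall (post).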

[1] = tested on: pigweed (Amaranthus retroflexus); test: as above
Method in brief: as §1

[2] = tested on: foxtail, giant (giant foxtail, Setaria faberii); test: as above
Method in brief: as §1

[3] = tested on: ragweed (common ragweed, Ambrosia elatior); test: as above
Method in brief: as §1

[4] = tested on: wheat (Triticum aestivum); test: as above; conditions: Postemergence; for Plant response rating, Wheat: 125 g ai/ha, 0 to 100 scale where 0 is no effect and 100 is complete control; for Wheat plant response rating: 500 g ai/ha, 0 to 100 scale, 0 is no effect, 100 is complete control
Method in brief: as §1

kochia (Kochia scoparia) = test: as above
Method in brief: as §1

[5] = tested on: ryegrass, Italian (Italian ryegrass, Lolium multiflorum); test: as above
Method in brief: as §1

[6] = tested on: barnyardgrass (Echinochloa crus-galli); test: as above
Method in brief: as §1

[7] = tested on: johnsongrass (Sorghum halepense); test: Test C greenhouse herbicide test, pre- and postemergence
Description: (§2) Seeds of plant species selected from blackgrass (Alopecurus myosuroides), ryegrass, Italian (Italian ryegrass, Lolium multiflorum), wheat (winter wheat, Triticum aestivum), galium (catchweed bedstraw, Galium aparine), corn (Zea mays), large crabgrass, large (large crabgrass, Digitaria sanguinalis), foxtail, giant (giant foxtail, Setaria faberii), johnsongrass (Sorghum halepense), lambsquarters (Chenopodium album), morningglory (Ipomoea coccinea), nutsedge, yellow (yellow nutsedge, Cyperus esculentus), pigweed (Amaranthus retroflexus), ragweed (common ragweed, Ambrosia elatior), soybean (Glycine max), barnyardgrass (Echinochloa crus-galli), oilseed rape (Brassica napus), waterhemp (common waterhemp, Amaranthus rudis), and velvetleaf (Abutilon theophrasti) were planted into a blend of loam soil and sand and treated preemergence with test chemicals formulated in a non-phytotoxic solvent mixture which included a surfactant.
(§3) At the same time, plants selected from these crop and weed species and also chickweed (common chickweed, Stellaria media), kochia (Kochia scoparia), and oat, wild (wild oat, Avena fatua), were planted in pots containing Redi-Earth® planting medium (Scotts Company, 14111 Scottslawn Road, Marysville, Ohio 43041) comprising spaghnum peat moss, vermiculite, wetting agent and starter nutrients and treated with postemergence applications of test chemicals formulated in the same manner. Plants ranged in height from 2 to 18 cm (1- to 4-leaf stage) for postemergence treatments. Treated plants and controls were maintained in a greenhouse for 13 to 15 d, after which time all species were compared to controls and visually evaluated. Plant response ratings, summarized in Table C, are based on a scale of 0 to 100 where 0 is no effect and 100 is complete control. A dash (-) response means no test result.

[8] = tested on: waterhemp (common waterhemp, Amaranthus rudis); test: as above
Description: as §2, §3

[9] = Postemergence, 125 g ai/ha, visual rating after approx. 10 d, 0 to 100 scale (0 no effect, 100 complete control)
[10] = Postemergence, 500 g ai/ha, 0 to 100 scale, 0 is no effect, 100 is complete control
[11] = Preemergence, 125 g ai/ha, 0 to 100 scale where 0 is no effect and 100 is complete control
[12] = Preemergence, 500 g ai/ha, 0 to 100 scale, 0 no effect, 100 complete control
[13] = Postemergence, 125 g ai/ha, 0 to 100 scale where 0 is no effect and 100 is complete control
[14] = Postemergence, 8 g ai/ha, scale 0 to 100 (0 no effect, 100 complete control)
[15] = Postemergence, 16 g ai/ha, scale 0 to 100 (0 no effect, 100 complete control)
[16] = Postemergence, 31 g ai/ha, 0 to 100 scale (0 no effect, 100 complete control)
[17] = Preemergence, 16 g ai/ha, scale 0 to 100, 0 is no effect, 100 is complete control
[18] = Preemergence, 31 g ai/ha, scale 0 to 100, 0 is no effect, 100 is complete control
[19] = Preemergence, 62 g ai/ha, scale 0 to 100, 0 is no effect, 100 is complete control
[20] = postemergence, 62 g ai/ha, scale 0 to 100, 0 no effect, 100 complete control
[21] = 0 to 100 scale where 0 is no effect and 100 is complete control
[22] = Postemergence, 125 g ai/ha, scale 0 to 100, 0 is no effect, 100 is complete control
[23] = Postemergence, 250 g ai/ha, scale 0 to 100, 0 no effect, 100 complete control, 13 to 15 d
[24] = Preemergence, 125 g ai/ha, scale 0 to 100, 0 is no effect, 100 is complete control
[25] = Preemergence, 250 g ai/ha, scale 0 to 100, 0 no effect, 100 complete control

Cc1nn(C)c(=O)c(-c2c(C)sc3c(C)cc(Cl)cc23)c1O [Compound 35]
10: Plant response rating, Johnsongrass [7, 14] | Plant response rating, Johnsongrass [7, 18] | Plant response rating, Johnsongrass [7, 19]
20: Plant response rating, Wheat [4] | Johnsongrass plant response rating [7, 16] | Johnsongrass plant response rating [7, 20]
45: Waterhemp plant response rating [8, 20]
90: Pigweed plant response rating [1, 10] | Plant response rating, Pigweed [1, 12] | Plant response rating, Foxtail, Giant [2, 9] | Foxtail, Giant plant response rating [2, 10] | Foxtail, Giant plant response rating [2, 11] | Ryegrass, Italian plant response rating [5, 11] | Plant response rating, Ryegrass, Italian [5, 12] | Barnyardgrass plant response rating [6, 10] | Plant response rating, Barnyardgrass [6, 12]
0: Plant response rating, Corn (corn (Zea mays); visual rating after approx. 10 d, 0 to 100 scale (0 no effect, 100 complete control)) | Plant response rating, Johnsongrass [7, 17] | Plant response rating, Waterhemp [8, 14]
30: Corn plant response rating (corn (Zea mays)) | Plant response rating, Waterhemp [8, 15]
60: Pigweed plant response rating [1, 11] | Barnyardgrass plant response rating [6, 11]
100: Plant response rating, Foxtail, Giant [2, 12] | Kochia plant response rating (kochia (Kochia scoparia); [10]) | Ryegrass, Italian plant response rating [5, 10]
25: Waterhemp plant response rating [8, 16]
80: Plant response rating, Pigweed [1, 9] | Ragweed plant response rating [3, 10] | Plant response rating, Ragweed [3, 12] | Plant response rating, Kochia (kochia (Kochia scoparia); [9]) | Plant response rating, Ryegrass, Italian [5, 13]
40: Wheat plant response rating [4] | Kochia plant response rating (kochia (Kochia scoparia); [11]) | Plant response rating, Waterhemp [8, 17] | Plant response rating, Waterhemp [8, 18]
50: Plant response rating, Ragweed [3, 9] | Plant response rating, Barnyardgrass [6, 9] | Plant response rating, Waterhemp [8, 19]
70: Ragweed plant response rating [3, 11] | Plant response rating, Kochia (kochia (Kochia scoparia); [12])
15: Plant response rating, Johnsongrass [7, 15]

Cc1nn(C)c(=O)c(-c2ccc(F)c3ccccc23)c1O [Compound 41]
100: Pigweed plant response rating [1, 11] | Plant response rating, Pigweed [1, 12] | Foxtail, Giant plant response rating [2, 10] | Ragweed plant response rating [3, 10] | Plant response rating, Kochia (kochia (Kochia scoparia); [13]) | Kochia plant response rating (kochia (Kochia scoparia); [10]) | Plant response rating, Kochia (kochia (Kochia scoparia); [12]) | Plant response rating, Ryegrass, Italian [5, 13] | Ryegrass, Italian plant response rating [5, 10] | Ryegrass, Italian plant response rating [5, 11] | Plant response rating, Ryegrass, Italian [5, 12] | Plant response rating, Waterhemp [8, 24] | Waterhemp plant response rating [8, 25]
95: Plant response rating, Waterhemp [8, 19]
75: Waterhemp plant response rating [8, 16] | Waterhemp plant response rating [8, 20]
0: Plant response rating, Wheat [4] | Plant response rating, Johnsongrass [7, 18]
85: Plant response rating, Waterhemp [8, 23] | Plant response rating, Waterhemp [8, 18]
70: Corn plant response rating (corn (Zea mays)) | Plant response rating, Foxtail, Giant [2, 13] | Foxtail, Giant plant response rating [2, 11] | Plant response rating, Ragweed [3, 13]
80: Ragweed plant response rating [3, 11] | Wheat plant response rating [4]
30: Plant response rating, Barnyardgrass [6, 13]
35: Plant response rating, Johnsongrass [7, 23] | Plant response rating, Johnsongrass [7, 24] | Johnsongrass plant response rating [7, 25]
5: Johnsongrass plant response rating [7, 16]
90: Pigweed plant response rating [1, 10] | Plant response rating, Foxtail, Giant [2, 12] | Plant response rating, Ragweed [3, 12] | Kochia plant response rating (kochia (Kochia scoparia); [11]) | Barnyardgrass plant response rating [6, 10] | Plant response rating, Barnyardgrass [6, 12] | Plant response rating, Waterhemp [8, 22]
10: Plant response rating, Johnsongrass [7, 22] | Johnsongrass plant response rating [7, 20]
50: Plant response rating, Johnsongrass [7, 19]
60: Plant response rating, Pigweed [1, 13]
20: Plant response rating, Corn (corn (Zea mays); [21]) | Barnyardgrass plant response rating [6, 11]

CCc1sc2ccc(C)cc2c1-c1c(O)c(C)nn(C)c1=O [Compound 47]
80: Plant response rating, Foxtail, Giant [2, 13] | Foxtail, Giant plant response rating [2, 10] | Plant response rating, Foxtail, Giant [2, 12] | Ragweed plant response rating [3, 11] | Ryegrass, Italian plant response rating [5, 10] | Barnyardgrass plant response rating [6, 10]
20: Plant response rating, Johnsongrass [7, 22]
60: Ryegrass, Italian plant response rating [5, 11]
75: Waterhemp plant response rating [8, 20]
100: Plant response rating, Pigweed [1, 13] | Pigweed plant response rating [1, 10] | Plant response rating, Pigweed [1, 12] | Plant response rating, Ragweed [3, 13] | Ragweed plant response rating [3, 10] | Plant response rating, Waterhemp [8, 22] | Plant response rating, Waterhemp [8, 23] | Plant response rating, Waterhemp [8, 18] | Plant response rating, Waterhemp [8, 24] | Waterhemp plant response rating [8, 25]
98: Plant response rating, Waterhemp [8, 19]
70: Pigweed plant response rating [1, 11] | Foxtail, Giant plant response rating [2, 11] | Plant response rating, Ryegrass, Italian [5, 13] | Barnyardgrass plant response rating [6, 11]
40: Plant response rating, Barnyardgrass [6, 13]
90: Plant response rating, Ragweed [3, 12] | Plant response rating, Kochia (kochia (Kochia scoparia); [13]) | Kochia plant response rating (kochia (Kochia scoparia); [10]) | Plant response rating, Kochia (kochia (Kochia scoparia); [12]) | Plant response rating, Ryegrass, Italian [5, 12] | Plant response rating, Barnyardgrass [6, 12] | Waterhemp plant response rating [8, 16]
0: Plant response rating, Corn (corn (Zea mays); [21]) | Plant response rating, Wheat [4] | Wheat plant response rating [4] | Plant response rating, Johnsongrass [7, 18] | Plant response rating, Johnsongrass [7, 19] | Plant response rating, Johnsongrass [7, 24] | Johnsongrass plant response rating [7, 25]
10: Corn plant response rating (corn (Zea mays)) | Kochia plant response rating (kochia (Kochia scoparia); [11]) | Johnsongrass plant response rating [7, 16] | Johnsongrass plant response rating [7, 20]
25: Plant response rating, Johnsongrass [7, 23]

CCc1sc2c(C)cc(C)cc2c1-c1c(O)c(C)nn(C)c1=O [Compound 57]
100: Plant response rating, Pigweed [1, 13] | Pigweed plant response rating [1, 10] | Pigweed plant response rating [1, 11] | Plant response rating, Pigweed [1, 12] | Foxtail, Giant plant response rating [2, 11] | Plant response rating, Foxtail, Giant [2, 12] | Plant response rating, Ragweed [3, 13] | Ragweed plant response rating [3, 10] | Plant response rating, Ragweed [3, 12] | Kochia plant response rating (kochia (Kochia scoparia); [10]) | Kochia plant response rating (kochia (Kochia scoparia); [11]) | Plant response rating, Kochia (kochia (Kochia scoparia); [12]) | Plant response rating, Ryegrass, Italian [5, 12] | Barnyardgrass plant response rating [6, 10] | Barnyardgrass plant response rating [6, 11] | Plant response rating, Barnyardgrass [6, 12] | Plant response rating, Waterhemp [8, 23] | Plant response rating, Waterhemp [8, 24] | Waterhemp plant response rating [8, 25]
90: Foxtail, Giant plant response rating [2, 10] | Ragweed plant response rating [3, 11] | Ryegrass, Italian plant response rating [5, 10] | Ryegrass, Italian plant response rating [5, 11] | Plant response rating, Barnyardgrass [6, 13] | Plant response rating, Waterhemp [8, 18]
10: Wheat plant response rating [4] | Plant response rating, Johnsongrass [7, 23]
30: Corn plant response rating (corn (Zea mays))
50: Waterhemp plant response rating [8, 16]
80: Plant response rating, Foxtail, Giant [2, 13] | Plant response rating, Kochia (kochia (Kochia scoparia); [13])
65: Waterhemp plant response rating [8, 20]
0: Plant response rating, Wheat [4] | Plant response rating, Johnsongrass [7, 18] | Plant response rating, Johnsongrass [7, 19] | Plant response rating, Johnsongrass [7, 24] | Johnsongrass plant response rating [7, 25]
5: Johnsongrass plant response rating [7, 16] | Plant response rating, Johnsongrass [7, 22] | Johnsongrass plant response rating [7, 20]
98: Plant response rating, Waterhemp [8, 19]
20: Plant response rating, Corn (corn (Zea mays); [21])
70: Plant response rating, Ryegrass, Italian [5, 13]
85: Plant response rating, Waterhemp [8, 22]
